Measurements from patent US10800792B2, “Inhibitors of Bruton's tyrosine kinase and method of their use” (JANSSEN PHARMACEUTICA NV, priority 2015, dated 2020).

Molecular target: unphosphorylated-BTK kinase domain (UP-BTK), GST-tagged human BTK (389-659aa) (Homo sapiens (Human), UniProt Q06187)
Assay: BTK kinase Lanthascreen binding assay
Details: pIC50 = negative log of the IC50 in molar; 60 minutes incubation, 50 nM Tracer 236
In short: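 Compound binding to the unphosphorylated kinase domain was monitored by displacement of a fluorescently labelled tracer in a Lanthascreen format. Potency is given as pIC50, the negative log of the molar IC50.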

unphosphorylated-BTK kinase domain (UP-BTK), GST-tagged human BTK (389-659aa), sequence (Q06187 389-659): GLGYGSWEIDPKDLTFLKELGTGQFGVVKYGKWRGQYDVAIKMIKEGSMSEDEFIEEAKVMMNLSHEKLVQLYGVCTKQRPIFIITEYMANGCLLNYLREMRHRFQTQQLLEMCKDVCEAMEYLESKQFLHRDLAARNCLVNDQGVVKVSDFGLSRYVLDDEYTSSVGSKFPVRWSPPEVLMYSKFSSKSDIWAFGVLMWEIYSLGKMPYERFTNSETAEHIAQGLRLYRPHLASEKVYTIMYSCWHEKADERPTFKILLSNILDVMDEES

| SMILES | BTK_I_binding pIC50 |
| --- | --- |
| Cc1cc(Oc2ccccc2)ccc1N1C(=O)Nc2c(C(=O)N[C@@H]3CCCN(C(=O)/C(C#N)=C/C4(N)CC4)C3)sc3nccc1c23 [Example 196, (R,E)-N-(1-(3-(1-Aminocyclopropyl)-2-cyanoacryloyl)piperidin-3-yl)-5-(2-methyl-4-phenoxyphenyl)-4-oxo-4,5-dihydro-3H-1-thia-3,5,8-triazaacenaphthylene-2-carboxamide] | 6.8 |
| Cc1cc(Oc2ccccc2)ccc1N1C(=O)Nc2c(C(=O)N[C@H]3CNC[C@@H](O)C3)sc3nccc1c23 [Example 197, N-((3R,5S)-5-Hydroxypiperidin-3-yl)-5-(2-methyl-4-phenoxyphenyl)-4-oxo-4,5-dihydro-3H-1-thia-3,5,8-triazaacenaphthylene-2-carboxamide] | 6.8 |
| Cc1cc(Oc2ccccc2)ccc1N1C(=O)Nc2c(C(=O)N[C@@H]3CCCN(C(=O)[C@@H]4CCOC4)C3)sc3nccc1c23 [Example 198, 5-(2-Methyl-4-phenoxyphenyl)-4-oxo-N—((R)-1-((R)-tetrahydrofuran-3-carbonyl)piperidin-3-yl)-4,5-dihydro-3H-1-thia-3,5,8-triazaacenaphthylene-2-carboxamide] | 7.0 |
| Cc1cc(Oc2ccccc2)ccc1N1C(=O)Nc2c(C(=O)N[C@@H]3CCCN(C(=O)/C=C/C4CC4)C3)sc3nccc1c23 [Example 199, (R,E)-N-(1-(3-Cyclopropylacryloyl)piperidin-3-yl)-5-(2-methyl-4-phenoxyphenyl)-4-oxo-4,5-dihydro-3H-1-thia-3,5,8-triazaacenaphthylene-2-carboxamide] | 6.6 |
| Cc1cc(Oc2ccccc2)ccc1N1C(=O)Nc2c(C(=O)N[C@H]3CN(C)C[C@H]3O)sc3nccc1c23 [Example 200, N-((3S,4R)-4-Hydroxy-1-methylpyrrolidin-3-yl)-5-(2-methyl-4-phenoxyphenyl)-4-oxo-4,5-dihydro-3H-1-thia-3,5,8-triazaacenaphthylene-2-carboxamide] | 6.6 |
| Cc1cc(Oc2ccccc2C2CC2)ccc1N1C(=O)Nc2c(C(=O)N[C@@H]3CCCN(C)C3)sc3nccc1c23 [Example 201, (R)-5-(4-(2-Cyclopropylphenoxy)-2-methylphenyl)-N-(1-methylpiperidin-3-yl)-4-oxo-4,5-dihydro-3H-1-thia-3,5,8-triazaacenaphthylene-2-carboxamide] | 6.6 |
| Cc1cc(Oc2ccccc2)ccc1N1C(=O)Nc2c(C(=O)NC3CNC(=O)C3)sc3nccc1c23 (centres unmarked) [Example 202, 5-(2-Methyl-4-phenoxyphenyl)-4-oxo-N-(5-oxopyrrolidin-3-yl)-4,5-dihydro-3H-1-thia-3,5,8-triazaacenaphthylene-2-carboxamide] | 6.7 |
| Cc1cc(Oc2ccccc2)ccc1N1C(=O)Nc2c(C(=O)NC3CCN(C)C(C)C3)sc3nccc1c23 (centres unmarked) [Example 203, N-(1,2-Dimethylpiperidin-4-yl)-5-(2-methyl-4-phenoxyphenyl)-4-oxo-4,5-dihydro-3H-1-thia-3,5,8-triazaacenaphthylene-2-carboxamide] | 6.5 |
| C=C(C)C(=O)N1CCC[C@@H](NC(=O)c2sc3nccc4c3c2NC(=O)N4c2ccc(Oc3ccccc3)cc2C)C1 [Example 204, (R)—N-(1-Methacryloylpiperidin-3-yl)-5-(2-methyl-4-phenoxyphenyl)-4-oxo-4,5-dihydro-3H-1-thia-3,5,8-triazaacenaphthylene-2-carboxamide] | 6.9 |
| Cc1cc(Oc2ccccc2)ccc1N1C(=O)Nc2c(C(=O)NC3CCCN(C(=O)C4CC4)C3)sc3nccc1c23 (centres unmarked) [Example 205, N-(1-(Cyclopropanecarbonyl)piperidin-3-yl)-5-(2-methyl-4-phenoxyphenyl)-4-oxo-4,5-dihydro-3H-1-thia-3,5,8-triazaacenaphthylene-2-carboxamide] | 6.8 |
| Cc1cc(Oc2ccccc2)ccc1N1C(=O)Nc2c(C(=O)NC3CCCCN(C)C3)sc3nccc1c23 (centres unmarked) [Example 206, 5-(2-Methyl-4-phenoxyphenyl)-N-(1-methylazepan-3-yl)-4-oxo-4,5-dihydro-3H-1-thia-3,5,8-triazaacenaphthylene-2-carboxamide] | 7.1 |
| Cc1cc(Oc2ccccc2)ccc1N1C(=O)Nc2c(C(=O)N[C@@H]3CCCN(C(=O)[C@H]4CCOC4)C3)sc3nccc1c23 [Example 207, 5-(2-Methyl-4-phenoxyphenyl)-4-oxo-N—((R)-1-((S)-tetrahydrofuran-3-carbonyl)piperidin-3-yl)-4,5-dihydro-3H-1-thia-3,5,8-triazaacenaphthylene-2-carboxamide] | 7.1 |
| CO[C@@H]1CN(C)C[C@@H]1NC(=O)c1sc2nccc3c2c1NC(=O)N3c1ccc(Oc2ccccc2)cc1C [Example 208, N-((3S,4R)-4-Methoxy-1-methylpyrrolidin-3-yl)-5-(2-methyl-4-phenoxyphenyl)-4-oxo-4,5-dihydro-3H-1-thia-3,5,8-triazaacenaphthylene-2-carboxamide] | 6.8 |
| C=CC(=O)N1CC[C@@H](NC(=O)c2sc3nccc4c3c2NC(=O)N4c2c(Cl)ccc3c2OCO3)C1 [Example 209, (R)—N-(1-Acryloylpyrrolidin-3-yl)-5-(5-chlorobenzo[d][1,3]dioxol-4-yl)-4-oxo-4,5-dihydro-3H-1-thia-3,5,8-triazaacenaphthylene-2-carboxamide] | 7.1 |
| Cc1cccc(Oc2ccc(N3C(=O)Nc4c(C(=O)N[C@@H]5CCCN(C)C5)sc5nccc3c45)c(C)c2)c1 [Example 210, (R)-5-(2-Methyl-4-(m-tolyloxy)phenyl)-N-(1-methylpiperidin-3-yl)-4-oxo-4,5-dihydro-3H-1-thia-3,5,8-triazaacenaphthylene-2-carboxamide] | 6.7 |
| CO[C@@H]1CNC[C@@H]1NC(=O)c1sc2nccc3c2c1NC(=O)N3c1ccc(Oc2ccccc2)cc1C [Example 211, N-((3S,4R)-4-Methoxypyrrolidin-3-yl)-5-(2-methyl-4-phenoxyphenyl)-4-oxo-4,5-dihydro-3H-1-thia-3,5,8-triazaacenaphthylene-2-carboxamide] | 6.7 |
| CCNC(C)(C)/C=C(\C#N)C(=O)N1CCC[C@@H](NC(=O)c2sc3nccc4c3c2NC(=O)N4c2ccc(Oc3ccccc3)cc2C)C1 [Example 212, (R,E)-N-(1-(2-Cyano-4-(ethylamino)-4-methylpent-2-enoyl)piperidin-3-yl)-5-(2-methyl-4-phenoxyphenyl)-4-oxo-4,5-dihydro-3H-1-thia-3,5,8-triazaacenaphthylene-2-carboxamide] | 7.0 |
| Cc1cc(Oc2ccccc2)ccc1N1C(=O)Nc2c(C(=O)N[C@@H]3CCCN(C4CC4)C3)sc3nccc1c23 [Example 213, (R)—N-(1-Cyclopropylpiperidin-3-yl)-5-(2-methyl-4-phenoxyphenyl)-4-oxo-4,5-dihydro-3H-1-thia-3,5,8-triazaacenaphthylene-2-carboxamide] | 6.5 |
| Cc1cc(Oc2cccc(F)c2)ccc1N1C(=O)Nc2c(C(=O)N[C@@H]3CCCN(C)C3)sc3nccc1c23 [Example 214, (R)-5-(4-(3-Fluorophenoxy)-2-methylphenyl)-N-(1-methylpiperidin-3-yl)-4-oxo-4,5-dihydro-3H-1-thia-3,5,8-triazaacenaphthylene-2-carboxamide] | 6.8 |
| COCCC(=O)N1CCC[C@@H](NC(=O)c2sc3nccc4c3c2NC(=O)N4c2ccc(Oc3ccccc3)cc2F)C1 [Example 215, (R)-5-(2-Fluoro-4-phenoxyphenyl)-N-(1-(3-methoxypropanoyl)piperidin-3-yl)-4-oxo-4,5-dihydro-3H-1-thia-3,5,8-triazaacenaphthylene-2-carboxamide] | 7.2 |
| C=CC(=O)N1CCC[C@@H](NC(=O)c2sc3nccc4c3c2NC(=O)N4c2ccccc2C)C1 [Example 216, (R)—N-(1-Acryloylpiperidin-3-yl)-4-oxo-5-(o-tolyl)-4,5-dihydro-3H-1-thia-3,5,8-triazaacenaphthylene-2-carboxamide] | 6.7 |
| Cc1cc(Oc2ccccc2)ccc1N1C(=O)Nc2c(C(=O)NCCN3CCNC3=O)sc3nccc1c23 [Example 217, 5-(2-Methyl-4-phenoxyphenyl)-4-oxo-N-(2-(2-oxoimidazolidin-1-yl)ethyl)-4,5-dihydro-3H-1-thia-3,5,8-triazaacenaphthylene-2-carboxamide] | 6.5 |
| Cc1cc(Oc2ccccc2)ccc1N1C(=O)Nc2c(C(=O)N[C@H]3CNC[C@@H]3F)sc3nccc1c23 [Example 218, N-((3S,4S)-4-Fluoropyrrolidin-3-yl)-5-(2-methyl-4-phenoxyphenyl)-4-oxo-4,5-dihydro-3H-1-thia-3,5,8-triazaacenaphthylene-2-carboxamide] | 6.8 |
| Cc1cc(Oc2ccccc2)ccc1N1C(=O)Nc2c(C(=O)N[C@@H]3CCCN(C(=O)C4CCOCC4)C3)sc3nccc1c23 [Example 219, (R)-5-(2-Methyl-4-phenoxyphenyl)-4-oxo-N-(1-(tetrahydro-2H-pyran-4-carbonyl)piperidin-3-yl)-4,5-dihydro-3H-1-thia-3,5,8-triazaacenaphthylene-2-carboxamide] | 6.9 |
| Cc1cc(Oc2ccccc2O)ccc1N1C(=O)Nc2c(C(=O)N[C@@H]3CCCN(C)C3)sc3nccc1c23 [Example 220, (R)-5-(4-(2-Hydroxyphenoxy)-2-methylphenyl)-N-(1-methylpiperidin-3-yl)-4-oxo-4,5-dihydro-3H-1-thia-3,5,8-triazaacenaphthylene-2-carboxamide] | 6.5 |
| Cc1cc(Oc2ccccc2)cc(F)c1N1C(=O)Nc2c(C(=O)N[C@@H]3CCCN(C)C3)sc3nccc1c23 [Example 222, (R)-5-(2-Fluoro-6-methyl-4-phenoxyphenyl)-N-(1-methylpiperidin-3-yl)-4-oxo-4,5-dihydro-3H-1-thia-3,5,8-triazaacenaphthylene-2-carboxamide] | 6.7 |
